These results are taken from publication PMC11818404, “Experimental and Computational Investigation of the Target and Mechanisms of Gelsemium Alkaloids in the Central Nervous System” (International Journal of Molecular Sciences, 2025).

Assay [1] addresses T1, α1β GlyR (Homo sapiens, UniProt P23415).
T1 construct: expressed in transfected cells; host or cells: HEK293
Put plainly: Whole-cell patch-clamp of glycine-evoked currents, transfected HEK293 cells. Particulars: α1βGlyR; alkaloid 300 µM co-applied with subsaturated glycine; mean ± SE. Type of assay: cell-based. As to the method:
(§1) HEK293 cells were obtained from Beijing Aisiyipu Biotechnology Co. Cells were cultured in Dulbecco’s Modified Eagle Medium containing 10% fetal bovine serum, 800 µg/mL G418, 200 µg/mL hygromycin B, and 100 µg/mL Zeocin at 37 °C and 5% CO2. Cells were transfected with plasmids encoding the following proteins: (i). nAChRα7 (CHRNA7, NM_000746; RIC3, NM_024557), (ii) GABA-α1 (NM_000806), GABA-β2 (NM_021911), and GABA-γ2 (NM_198904), and (iii) GlyR α1 (NM_000171) and GlyR β (NM_000824). To obtain β-containing GlyRs, an α/β transfection ratio of 1:5 was used; for γ2-containing GABAARs, the ratio was 1:2:5 of α/β/γ2.
(§2) For whole-cell recording, the […] contained 140 mM NaCl, 3.5 mM KCl, 1 mM MgCl2•6H2O, 2 mM CaCl2•2H2O, 10 mM D-glucose, 10 mM HEPES, and 1.25 mM NaH2PO4•2H2O, (pH 7.4). The […] solution contained 50 mM CsCl, 10 mM NaCl, 10 mM HEPES, 60 mM CsF, and 20 mM EGTA (pH 7.2). Briefly, during the diaphragm clamp operation, the glass capillary was drawn into a recording electrode using a microelectrode puller. Subsequently, the electrode filled with intracellular fluid was loaded into the microelectrode holder, and the cell-lined coverslip was placed in the recording bath under an inverted microscope, followed by manipulation of the microelectrode manipulator to immerse the electrode into the extracellular fluid under an inverted microscope. Electrode resistance (Rpip) was recorded, and the electrode was gently positioned on the cell surface with negative pressure applied to establish a GΩ-level high-resistance seal. Fast capacitance compensation was performed, followed by additional suction to breach the cell membrane and form a whole-cell recording. Finally, slow capacitance compensation was performed, and experimental parameters such as series resistance (Rs) were recorded. Leakage compensation was not provided. Whole-cell patch-clamp recordings were performed at −70 mV using HEKA EPC-10 (HEKA Elektronik GmbH, Reutlingen, Germany) amplifiers. Data acquisition was performed using the HEKA PatchMaster. We aimed to study the allosteric regulation of GABAAR and GlyR by Gelsemium alkaloids, so the effects of the alkaloids on Gly- or GABA-evoked currents were determined via co-application of subsaturated agonist concentrations (EC10 and EC50) together with the alkaloid. The EC50 for α1 GlyR was 30 µM, whereas the EC10 for α1β2γ2 GABAAR was 3.0 µM. The choice of specific agonist concentration was determined based on previous studies. We first examined the effects of each Gelsemium alkaloid at a concentration of 300 µM on channel currents. The peak receptor currents for subsaturated concentrations of specific agonists and the peak receptor currents after administration of each drug were recorded, and the modulation percentage was calculated for each drug. The modulation percentage was calculated using Equation (1):Percentage change = ((Ialkaloid − Iagonist)/Iagonist),(1) where Ialkaloid denotes the current in the presence of a given concentration of alkaloid, and Iagonist denotes the amplitude of the control glycine or GABA current elicited by the activation of a given receptor. To construct the concentration-response curve, six graded concentrations (1 µM, 3 µM, 10 µM, 30 µM, 100 µM, and 300 µM) of each Gelsemium alkaloid were tested. The concentration-response curve parameters for alkaloid inhibition were obtained from the curve of the normalized concentration-response data points fitted using Equation (2):Iagonist = Imax (agonist)nH/((agonist)nH + (EC50) nH), (2) where Iagonist is the current in the presence of a given subsaturated concentration of GABA, and EC50 is the concentration required for the half-maximal response. Each drug was repeated four times per concentration, and the data were expressed as the mean ± SE All electrophysiological tests performed at 20 °C.
Background: The patch-clamp technique gives a direct electrical read-out from membranes.

Assay [2] concerns the target T2, α1 GlyR (Homo sapiens, UniProt P23415).
T2 construct: expressed in transfected cells; host or cells: HEK293
T2 sequence (P23415 29-449 isoform P23415-2 limits assumed): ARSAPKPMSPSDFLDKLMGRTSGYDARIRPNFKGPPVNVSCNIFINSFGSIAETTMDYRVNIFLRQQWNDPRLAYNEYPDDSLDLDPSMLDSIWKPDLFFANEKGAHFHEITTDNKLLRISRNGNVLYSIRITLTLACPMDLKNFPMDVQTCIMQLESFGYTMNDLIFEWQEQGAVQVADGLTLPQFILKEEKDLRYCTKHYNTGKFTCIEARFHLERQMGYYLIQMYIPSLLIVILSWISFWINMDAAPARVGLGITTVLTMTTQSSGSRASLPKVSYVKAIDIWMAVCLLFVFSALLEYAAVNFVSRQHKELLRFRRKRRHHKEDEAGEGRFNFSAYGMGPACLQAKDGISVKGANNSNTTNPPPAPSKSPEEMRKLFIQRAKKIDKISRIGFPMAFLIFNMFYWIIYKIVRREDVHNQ
Described as above. Type of assay: cell-based. Particulars: for activity on GlyR currents (in words): GlyRs (α1 and α1β), single concentration 300 µM; for percentage change in peak current modulation: alkaloid 300 µM co-applied with subsaturated glycine, mean ± SE. As to the method:
as §1, §2

Assay [3] has as its target T3, α1β2γ2 GABAAR (Homo sapiens, UniProt P14867+P18507+P47870).
T3 construct: expressed in transfected cells; host or cells: HEK293
Put plainly: Whole-cell patch-clamp of GABA-evoked currents, transfected HEK293 cells. Type of assay: cell-based. The note with it: for Hillslope: GABAAR concentration-response curve; for percentage change in peak current modulation / IC50: GABAAR; for percentage change in peak current modulation: alkaloid 300 µM co-applied with subsaturated GABA, mean ± SE; for IC50: reduction of GABA-evoked current, n = 4.

In assay [4] the target is T4, nAChRα7 (Homo sapiens, UniProt P36544).
T4 construct: expressed in transfected cells; host or cells: HEK293
Put plainly: Whole-cell patch-clamp of acetylcholine ion channel currents, transfected HEK293 cells. Type of assay: cell-based. The note with it: nACHR; alkaloid 300 µM; mean ± SE. How it is done: as §1
For whole-cell recording, the […] contained 140 mM NaCl, 3.5 mM KCl, 1 mM MgCl2•6H2O, 2 mM CaCl2•2H2O, 10 mM D-glucose, 10 mM HEPES, and 1.25 mM NaH2PO4•2H2O, (pH 7.4). […] Electrode resistance (Rpip) was recorded, and the electrode was gently positioned on the cell surface with negative pressure applied to establish a GΩ-level high-resistance seal. […] Finally, slow capacitance compensation was performed, and experimental parameters such as series resistance (Rs) were recorded. […] We aimed to study the allosteric regulation of GABAAR and GlyR by Gelsemium alkaloids, so the effects of the alkaloids on Gly- or GABA-evoked currents were determined via co-application of subsaturated agonist concentrations (EC10 and EC50) together with the alkaloid. […]

Assay [5] has as its system GABAAR. The arrangement: method as in PMID 32541553, PMID 32391682. Particulars: read-out: EC50 for positive allosteric modulation of GABAAR; cited from earlier work.
For assay [6], the system named is GlyR. The note with it: read-out: IC50 for GlyR; cited from earlier work.
Setting [7] is: α1GlyR, reduction of glycine-evoked current, n = 4, read-out: IC50.

Like-named read-outs stand apart in the source and are kept apart here.

T1 sequence (P48167 23-497 partner, one chain of several): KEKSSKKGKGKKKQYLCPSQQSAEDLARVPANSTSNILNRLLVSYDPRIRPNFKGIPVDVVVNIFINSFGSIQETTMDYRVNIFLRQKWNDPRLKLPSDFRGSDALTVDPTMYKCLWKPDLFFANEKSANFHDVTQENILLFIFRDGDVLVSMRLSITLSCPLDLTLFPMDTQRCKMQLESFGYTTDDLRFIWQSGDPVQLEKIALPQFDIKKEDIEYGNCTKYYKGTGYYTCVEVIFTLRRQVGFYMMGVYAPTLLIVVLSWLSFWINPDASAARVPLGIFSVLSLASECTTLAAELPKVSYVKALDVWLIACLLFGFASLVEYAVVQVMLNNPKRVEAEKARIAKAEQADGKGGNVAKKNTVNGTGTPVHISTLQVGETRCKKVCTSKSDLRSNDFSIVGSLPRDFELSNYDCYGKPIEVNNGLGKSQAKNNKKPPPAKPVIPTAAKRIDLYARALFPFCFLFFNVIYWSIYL
T3 sequence (P18507 40-475): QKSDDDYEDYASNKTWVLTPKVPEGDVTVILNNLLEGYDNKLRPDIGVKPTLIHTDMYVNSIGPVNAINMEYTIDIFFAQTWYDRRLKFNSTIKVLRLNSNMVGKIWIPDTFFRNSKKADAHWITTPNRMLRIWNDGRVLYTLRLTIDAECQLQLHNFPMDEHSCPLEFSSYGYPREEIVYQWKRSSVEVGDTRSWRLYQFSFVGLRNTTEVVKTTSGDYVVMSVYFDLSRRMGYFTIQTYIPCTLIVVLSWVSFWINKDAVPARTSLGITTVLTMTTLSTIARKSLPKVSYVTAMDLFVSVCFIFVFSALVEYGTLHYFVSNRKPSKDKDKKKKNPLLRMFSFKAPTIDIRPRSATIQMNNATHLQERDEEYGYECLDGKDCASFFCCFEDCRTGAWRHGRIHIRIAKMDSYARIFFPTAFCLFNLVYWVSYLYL
T3 sequence (P14867 28-456): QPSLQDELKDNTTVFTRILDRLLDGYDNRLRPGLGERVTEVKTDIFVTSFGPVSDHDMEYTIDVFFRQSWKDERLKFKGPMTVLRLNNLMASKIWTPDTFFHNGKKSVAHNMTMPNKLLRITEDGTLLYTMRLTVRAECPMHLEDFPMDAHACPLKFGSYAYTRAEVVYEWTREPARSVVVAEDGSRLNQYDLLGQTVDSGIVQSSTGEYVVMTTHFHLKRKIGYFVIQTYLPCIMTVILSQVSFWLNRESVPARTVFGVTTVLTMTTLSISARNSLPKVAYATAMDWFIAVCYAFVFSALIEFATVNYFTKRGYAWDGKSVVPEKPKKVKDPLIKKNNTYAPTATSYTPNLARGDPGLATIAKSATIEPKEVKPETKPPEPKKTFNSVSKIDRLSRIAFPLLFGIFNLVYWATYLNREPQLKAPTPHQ
T3 sequence (P47870 26-512): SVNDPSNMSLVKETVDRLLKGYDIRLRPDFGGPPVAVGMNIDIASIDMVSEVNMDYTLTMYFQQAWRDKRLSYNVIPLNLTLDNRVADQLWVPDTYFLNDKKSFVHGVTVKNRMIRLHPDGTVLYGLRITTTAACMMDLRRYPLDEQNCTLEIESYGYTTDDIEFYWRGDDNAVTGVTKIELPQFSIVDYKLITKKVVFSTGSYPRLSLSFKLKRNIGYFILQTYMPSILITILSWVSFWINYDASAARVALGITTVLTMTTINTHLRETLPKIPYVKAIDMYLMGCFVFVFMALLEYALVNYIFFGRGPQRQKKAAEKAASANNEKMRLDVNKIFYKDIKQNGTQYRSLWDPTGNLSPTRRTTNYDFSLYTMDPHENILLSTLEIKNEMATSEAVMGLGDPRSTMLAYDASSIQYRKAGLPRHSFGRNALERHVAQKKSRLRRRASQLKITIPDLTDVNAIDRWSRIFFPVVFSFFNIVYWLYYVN
T4 sequence (P36544 23-502): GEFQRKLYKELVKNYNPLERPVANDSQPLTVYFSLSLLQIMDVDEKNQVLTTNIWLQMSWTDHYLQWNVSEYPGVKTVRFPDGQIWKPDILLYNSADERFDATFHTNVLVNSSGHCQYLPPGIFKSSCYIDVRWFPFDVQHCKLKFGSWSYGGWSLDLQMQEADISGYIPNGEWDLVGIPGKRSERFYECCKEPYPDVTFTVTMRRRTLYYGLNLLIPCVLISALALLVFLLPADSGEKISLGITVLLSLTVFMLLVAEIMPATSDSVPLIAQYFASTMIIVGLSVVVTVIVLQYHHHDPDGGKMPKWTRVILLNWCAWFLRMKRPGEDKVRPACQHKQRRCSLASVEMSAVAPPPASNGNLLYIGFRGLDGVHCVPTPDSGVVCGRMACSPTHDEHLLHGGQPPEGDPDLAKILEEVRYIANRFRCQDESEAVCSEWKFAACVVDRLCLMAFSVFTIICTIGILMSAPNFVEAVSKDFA

In general, IC50 refers to the concentration that gives 50% inhibition. Turning to `C=C[C@]12CN(C)[C@@H]3[C@H]4CO[C@H](C[C@H]41)[C@]1(C(=O)Nc4ccccc41)[C@@H]32` [Gelsemine, gelsemine], the “percentage change in peak current modulation” value (from here on “percentage change”) in assay [1] is −92.18% ± 2.87%; in assay [2] (α1GlyR) it was −70.39% ± 4.85%; in assay [3], −58.78% ± 1.74%. The results for the IC50 in assay [2] and in assay [3] were 10.4 µM and 171 µM, respectively. In addition, in assay [2], the “activity on GlyR currents (in words)” value was “strong activity”. For the same compound, the Hillslope in assay [3] is on record as −0.9158.

As a reminder, the EC50 is the midpoint of the concentration-response curve. Consider `CCC1=N[C@H]2C[C@@]3(C(=O)N(OC)c4ccccc43)[C@H]3C[C@@H]1[C@@H]2CO3` [Gelsenicine, gelsenicine], for which the “percentage change” value in assay [1] is listed as −10.44% ± 5.99%; in assay [2] (α1GlyR), −13.64% ± 4.34%; in assay [3] it was 58.63% ± 5.56%. In addition, the “activity on GlyR currents (in words)” value in assay [2] is listed as “minimal effect”. The compound also showed an EC50 in assay [3] of 192 µM. In assay [3], this compound returned a Hillslope of 0.8002.

As for `C=C[C@]12CN(C)[C@@H]3[C@H]4CO[C@H](C[C@H]41)[C@]1(C(=O)N(OC)c4ccccc41)[C@@H]32` [Gelsevirine, gelsevirine], the “percentage change” value in assay [4] is reported as 0.75% ± 0.65%; in assay [1], −99.06% ± 0.62%; in assay [2] (α1GlyR), −98.89% ± 0.68%; in assay [3], −55.82% ± 0.35%. For the same compound, the “activity on GlyR currents (in words)” value in assay [2] is recorded as “strong activity”. Moreover, the IC50 was found to be 82.9 µM in assay [2] (setting [7]) and 252 µM in assay [3]. In assay [3], the Hillslope is recorded as −1.110.

Regarding `C=C[C@@]12CN(C)[C@H]3C[C@]14C(=Nc1ccccc14)[C@H]1C[C@@H]2[C@@H]3CO1` [Koumine, koumine], the “percentage change” value in assay [4] is recorded as 1.42% ± 0.00%; in assay [1], −87.29% ± 0.52%; in assay [2] (α1GlyR) it was −95.53% ± 0.70%. Also, in assay [2], the “activity on GlyR currents (in words)” value is “strong activity”. Moreover, the IC50 in assay [2] (setting [7]) came out at 9.59 µM.

Regarding `CN1C(=O)CN=C(c2ccccc2)c2cc(Cl)ccc21` [diazepam], the EC50 in assay [5] is roughly 0.005 µM.

Regarding `O=C1C[C@@H]2OCC=C3CN4CC[C@]56c7ccccc7N1[C@H]5[C@H]2[C@H]3C[C@H]46` [strychnine], in assay [6], the IC50 was roughly 0.18 µM.

On to humantenirine, for which the figures for the “percentage change” value in assay [1], in assay [2] (α1GlyR) and in assay [3] were −16.82% ± 4.41%, −11.75% ± 4.34% and 41.66% ± 0.53%, respectively. In assay [2], the “activity on GlyR currents (in words)” value is “minimal effect”.
